# Measured values from PubChem BioAssay AID179 (DTP/NCI, 2004).
# Calls of active or inactive are those of the source.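 How the source made its calls: active means compounds giving half or more protection of infected cells from virus-caused growth loss, again on retest; inactive means the rest.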 Where a SMILES comes first, the peptide text is derived from it. Bridges are numbered along the chain shown (N, C = ends). Roman numbers before positions name the chains, in order.
# Test system: CEM cells HIV-1 protection, formazan growth assay
# Test: NCI AIDS Antiviral Assay
# Settings: for IC50: measured here: growth of uninfected CEM cells
# In short: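 Steps: treat uninfected and HIV-1-infected human CEM cells at five drug levels; quantify growth by soluble formazan; retest any compound reaching 50% protection; classify actives from the retest.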
Structure (SMILES),EC50,IC50,outcome
CCOc1ccc2nc(NC(=O)C(=O)C(C(=O)c3ccccc3F)C3OC(=O)c4ccccc43)sc2c1 (stereo not drawn),> 182 µM,8.13 µM,
CC(=O)c1nc(C#N)c(N)o1,,,inactive
Cn1c(=O)nc2n(-c3cc(C(F)(F)F)cc(C(F)(F)F)c3)c3ccccc3nc-2c1=O,,,inactive
Cc1ccc(NC(=O)CCC(CC(=O)C(C)(C)C)=NNC(=O)C(=O)NN)cc1C,> 3.63 µM,2.57 µM,
CSc1c(C(=O)Nc2ccc(C)cc2)c(N)nn1-c1ccccc1,> 200 µM,> 200 µM,
NC(CSSCC(N)C(=O)NC(Cc1ccc(O)cc1)C(=O)O)C(=O)NC(Cc1ccc(O)cc1)C(=O)O (stereo not drawn) (I: H-Cys-Tyr-OH / II: H-Cys-Tyr-OH; disulfide I:1-II:1; configuration not given here),> 200 µM,> 200 µM,
O=[N+]([O-])c1ccc2nc(/C=C(\O)c3ccc(Cl)cc3)c(/C=C(\O)c3ccc(Cl)cc3)nc2c1,> 200 µM,89.1 µM,
CNC(=O)NCCCCC(NC(C)=O)C(=O)NCc1ccccc1 (stereo not drawn),> 741 µM,> 741 µM,
O=C1[C@@H]2C[C@@H](O)CN2C(=O)c2ccccc2N1CCCO,,,inactive
O=[N+]([O-])c1cccc2c(Nc3ccc(S(=O)(=O)Nc4nccs4)cc3)c3ccccc3nc12,> 200 µM,21.9 µM,
COc1ccc2c(c1)c(OC)c(CC(O)C(C)(C)O)c(=O)n2C (stereo not drawn),> 200 µM,> 200 µM,
CC(=O)NNC(=S)/N=C/c1c(C)[nH]n(-c2ccccc2)c1=O,,,inactive
Nc1nc2nn(-c3ccc(C(=O)O)cc3)nc2c(=O)[nH]1,> 200 µM,> 200 µM,
COc1cc2c3c(c1)nc(C)n3C(=O)C(C)S2 (stereo not drawn),> 200 µM,50.1 µM,
Nc1ccc(Nc2cc(=O)[nH]c(=O)[nH]2)cc1Cl,> 200 µM,> 200 µM,
Cc1cc(S(=O)(=O)Nc2nc(N)nc(N3CCOCC3)n2)c(SCC(=O)O)cc1Cl,> 200 µM,> 200 µM,
COc1ccc(NC(=S)Nc2c(C)n(C)n(-c3ccccc3)c2=O)cc1,> 200 µM,> 200 µM,
CCN(CC)CCCC(C)Nc1cc(-c2ccccc2)nc2cc(Cl)ccc12 (stereo not drawn),> 427 µM,2.45 µM,
COc1ccc(C(=O)C(c2ccc(OC)cc2)C2(O)C(=O)Nc3c(Cl)cc(Cl)cc32)cc1 (stereo not drawn),> 39.8 µM,> 39.8 µM,
COc1cc(C(=O)Nc2nnc(S(N)(=O)=O)s2)cc(OC)c1OC,> 200 µM,> 200 µM,
CC(C)=CCOc1cc(NC(=S)c2ccoc2C)ccc1Cl,0.0759 µM,30.2 µM,
Cc1cc(-c2ccccc2)oc(=O)c1NC(=O)c1ccccc1,> 200 µM,97.7 µM,

Structure (SMILES),EC50,IC50,outcome
O=c1onc(-c2ccccc2)c2ccccc12,> 162 µM,> 162 µM,
NC(N)=N/N=C\CC(O)CO (stereo not drawn),> 200 µM,> 200 µM,
NC1=C(c2nc(-c3ccccc3)cs2)C(c2ccc(Br)cc2)c2c(c3ccccc3oc2=O)O1 (stereo not drawn),> 200 µM,> 200 µM,
COc1cc(C(=O)CC(O)(C(F)(F)F)C(F)(F)F)cc(OC)c1OC,> 200 µM,> 200 µM,
O=C1c2c(F)c(F)c(F)c(F)c2SC2=NCCN12,> 20 µM,2 µM,
O=CCCCCCOCc1ccccc1,> 200 µM,3.47 µM,
COc1ccccc1-c1cc(=O)c2cc(C)c(C)c(C(=O)O)c2o1,,,inactive
c1ccc(CC(c2ccccc2)N2CCOCC2)cc1 (stereo not drawn),,,inactive
Clc1cc2ncn(C3CCCO3)c2cc1Cl (stereo not drawn),> 200 µM,61.7 µM,
O=C(O)C1CCC(c2ccc(Oc3ccccc3)cc2)=N1 (stereo not drawn),> 200 µM,> 200 µM,
CC(=O)OC1C(OC(C)=O)[C@@]2(C)C(C(OC(C)=O)[C@@H]3C2C(C)C=C2OC(=O)[C@@](C)(O)[C@@]23C)[C@H]2C1[C@]1(C)C(C[C@@H]3O[C@@H]3C1OC(C)=O)C(=O)[C@@H]2O (stereo partly drawn),,,inactive
COc1ccc(N2C=Nn3c(nc4sc(C)c(C)c4c3=O)C2)cc1,,,inactive
O=S1(=O)O[C@H]2CCCC[C@@H]2O1,> 45.7 µM,> 45.7 µM,
OCc1cc2c(ccc3sc4ccc5sc6ccc7ncccc7c6c5c4c32)s1,> 200 µM,11.2 µM,
CCCCCCCCCCCCC1N=C(N)NC2(CCCO2)C1C(=O)OC (stereo not drawn),> 200 µM,5.75 µM,
COc1c(C)c(C/C=C(\C)CC/C=C(\C)CC/C=C(\C)CCC=C(C)C)c(OC)c(OC)c1OC,> 200 µM,> 200 µM,
O=C(O)Cc1cccc(=O)c(O)c1C(=O)O,> 200 µM,129 µM,
CC(=O)OCC1OC(n2c3c(c(-c4ccc(Cl)cc4)c(C#N)c2=S)CCCC3)C(OC(C)=O)C(OC(C)=O)C1OC(C)=O (stereo not drawn),> 200 µM,26.3 µM,
O=C(c1ccccc1)n1c2ccc(Br)cc2c2nc3ccccc3nc21,> 50.1 µM,> 50.1 µM,
CCOC(=O)C1(C/C=C/CBr)CCc2ccccc2C1=O (stereo not drawn),> 200 µM,2.14 µM,
CN(C)c1ccc(/C=C2\Cc3ccccc3C2=O)cc1Br,> 11 µM,> 11 µM,
COC(=N)CCCl,> 200 µM,> 200 µM,

Structure (SMILES),EC50,IC50,outcome
COc1ccc(C2CC3(c4ccccc4)ON=C(c4ccccc4)N3c3ccccc3S2)cc1 (stereo not drawn),> 200 µM,> 200 µM,
O=[N+]([O-])c1ccc(SSc2ccc([N+](=O)[O-])cc2Cl)c(Cl)c1,> 200 µM,10 µM,
O=C1C=CC(=O)N1n1c(Cc2ccccc2)n[nH]c1=O,> 200 µM,> 200 µM,
COc1cc2ccc(C(=O)O)cc2cc1OC,,,inactive
Cn1c(-c2ccc(/C=N\N3CCN(/N=C/c4ccc(-c5c[n+]6ccccc6n5C)cc4)CC3)cc2)c[n+]2ccccc12,> 3.02 µM,> 3.02 µM,
CN1C=C/C(=C/[N+](=O)[O-])N(C)C1=O,> 200 µM,> 200 µM,
O=C(O)c1cnc2[nH]ccn2c1=O,> 200 µM,> 200 µM,
NC(=O)c1csc(C2(O)COC(CO)C2O)n1 (stereo not drawn),> 200 µM,> 200 µM,
COc1cc(/C=C2\C=Cc3ccccc32)cc(OC)c1OC,> 24.5 µM,> 24.5 µM,
Cn1c2c(c3ccccc31)CC(=O)N1CCCCC1C21OCCO1 (stereo not drawn),> 100 µM,> 100 µM,
S=C1N(c2ccc(Cl)cc2)C2=C(N=Nc3ccccc3Cl)C(=Nc3ccccc3S2)N1c1ccccn1,> 46.8 µM,21.9 µM,
CCOC(=O)C1C(c2ccc(O)c(OC)c2)c2c([nH][nH]c2=O)CC1(C)O (stereo not drawn),> 200 µM,> 200 µM,
C[C@]12CCC[C@H](OC=O)C1(O)C[C@H](C(=O)O)CC2 (stereo partly drawn),,,inactive
CC(=O)C1C(=O)C(=O)N(c2ccc([N+](=O)[O-])cc2)C1=O (stereo not drawn),> 200 µM,> 200 µM,
COc1cc(OC)c2c(c1)OC(c1ccccc1)CC2=O (stereo not drawn),> 200 µM,> 200 µM,
C1=NCCNCCNCCN=Cc2ccc(cc2)OCc2cccc(n2)COc2ccc1cc2,> 50.1 µM,> 50.1 µM,
S=C(NC1CCCCC1)SSSC(=S)NC1CCCCC1,> 200 µM,27.5 µM,
O=[N+]([O-])c1ccc(Cl)cc1N/N=C/c1cccs1,> 200 µM,> 100 µM,
COC1/C=C/OC2(C)Oc3c(C)c(O)c4c(O)c(c(/C=N/N5C(C)CN(Cc6cccc(C#N)c6)CC5C)c(O)c4c3C2=O)NC(=O)/C(C)=C\C=C\C(C)C(O)C(C)C(O)C(C)C(OC(C)=O)C1C (stereo not drawn),> 200 µM,6.46 µM,
CNCC(=O)NC(CO)C(=O)NC(CO)C(=O)NC1C(C(N)=O)OC(n2ccc(N)nc2=O)C(O)C1O (stereo not drawn),,,inactive
N#C/C(=C\c1cc(O)c(O)c(Br)c1)C(=O)NCCCNC(=O)/C(C#N)=C/c1cc(O)c(O)c(Br)c1,> 200 µM,112 µM,
C[C@]12CC(C=O)C(=O)C(O)=C1CC[C@@H]1C2CC[C@@]2(C)C1CC[C@]2(C)O (stereo partly drawn),,,inactive

Structure (SMILES),EC50,IC50,outcome
O=C1O[C@H](COC(=O)c2ccccc2)[C@@H](OC(=O)c2ccccc2)C=C1OC(=O)c1ccccc1,> 200 µM,20.4 µM,
Cc1cc(Br)cc(C)c1NC(=O)C(=O)C(C(=O)c1ccc2ccccc2c1)C1OC(=O)c2ccccc21 (stereo not drawn),> 64.6 µM,12.9 µM,
Cn1c(=O)c2[nH]cnc2n(CC(=O)O)c1=O,> 1120 µM,> 1120 µM,
CCOC(=O)/C(=C\c1ccc(Cl)cc1)P(=O)(OCC)OCC,> 15.1 µM,14.1 µM,
CCCN1CCC=C([Si](C)(C)C)C1,,,inactive
CC1CC(NN(C)C)=C(C#N)C1(C#N)C#N (stereo not drawn),> 200 µM,11.7 µM,
COc1ccc(C2SCC(=O)N2c2ccc(-n3c(-c4ccccc4)nc4ccccc4c3=O)cc2)cc1 (stereo not drawn),> 200 µM,158 µM,
Cc1ccn2c(N=O)c(-c3ccccc3)nc2c1,135 µM,> 200 µM,
COc1ccc(C2OC2C(=O)C23CC4CC(CC(C4)C2)C3)cc1 (stereo not drawn),> 200 µM,52.5 µM,
COn1c2ccccc2c2c1cc1ccccc1[n+]2[O-],> 67.6 µM,31.6 µM,
CN(C)Nc1cc(=O)[nH]c(=O)[nH]1,> 200 µM,> 200 µM,
COc1cc(CC(C(=O)O)C(=O)O)c(OC)cc1CC(C(=O)O)C(=O)O,,,inactive
CC(C)OCC(O)COc1ccc2ccc(=O)oc2c1 (stereo not drawn),> 200 µM,> 200 µM,
COc1cccc2cc(C(=O)Nc3ccccc3)c(=N)oc12,> 200 µM,> 200 µM,
CN1C(=O)C2CCC(=O)N2c2cccnc21 (stereo not drawn),> 200 µM,> 200 µM,
Nc1c(N=Nc2ccc([N+](=O)[O-])cc2)c(S(=O)(=O)O)cc2cc(S(=O)(=O)O)c(N=Nc3ccc(-c4ccc(N=Nc5ccc(O)cc5)cc4)cc3)c(O)c12,> 100 µM,15.1 µM,
CN1CCN(/C(N)=C(\C#N)C(=O)Nc2ccc(Cl)cc2)CC1,> 200 µM,> 100 µM,
C[N+]1(C)CCCC(C#N)(c2ccccc2)CC1 (stereo not drawn),> 813 µM,,
CCc1cccc(C(C)C)c1NC(=O)C(=O)C1C(=O)Nc2ccccc2S1=O (stereo not drawn),> 91.2 µM,> 91.2 µM,
COc1nc(NC2OC(COC(C)=O)C(OC(C)=O)C(OC(C)=O)C2OC(C)=O)c2c(n1)OCC2=O (stereo not drawn),,,inactive
COC(=O)N(C[C@@H]1C=CCCC1)c1ccccc1I,> 14.1 µM,> 14.1 µM,
